In ChEMBL document CHEMBL1201862, “PubChem BioAssay data set” (2004):
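Where inhibition never reached the appropriate level, the endpoint shown equals the highest concentration tested. Otherwise, values were interpolated linearly from a five-concentration, 48-hour dose response in 96-well plates. The concentration for 50% growth inhibition is given as GI50.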 Active and inactive are the calls of the source. No stated cut-off is given here; in the data, active = GI50 up to about 1.1 µM and inactive = higher.

Assays:
Assay in all cases: NCI-60 cell line screen, 48 h
[1] = tested on: HT-29
[2] = tested on: HCC 2998
[3] = tested on: MDA-MB-231
[4] = tested on: SN12C
[5] = tested on: HL-60
[6] = tested on: SF-539
[7] = tested on: PC-3
[8] = tested on: K562
[9] = tested on: HOP-62
[10] = tested on: Hs-578T
[11] = tested on: HCT-116
[12] = tested on: NCI/ADR-RES
[13] = tested on: SF-268
[14] = tested on: A498
[15] = tested on: MDA-MB-435
[16] = tested on: BT-549

Measured: GI50

C(=N\c1ccc(-c2cc(-c3ccccc3)nc3ccc4ccccc4c23)cc1)/c1ccccc1
inactive: [1] 7.87 µM | [2] 11.4 µM | [3] 11.2 µM | [4] 8.39 µM | [5] 9.48 µM | [6] 16.5 µM | [7] 13.2 µM | [8] 4.79 µM | [9] 20.9 µM | [10] 5.86 µM | [11] 16.6 µM | [12] 28.5 µM | [13] 7.48 µM | [14] 26.7 µM | [15] 21.2 µM

C#CCCCC(=C)C[C@H](OCc1ccccc1)[C@H]1OC(=O)[C@@H]1C
inactive: [2] > 100 µM | [3] 13.2 µM | [4] > 100 µM | [5] 66.1 µM | [6] 20.5 µM | [7] 48.2 µM | [9] > 100 µM | [12] 40.9 µM | [13] > 100 µM | [16] > 100 µM | [14] > 100 µM | [15] 48.6 µM

O=C1/C(=C/c2ccc(Cl)cc2)N=C(c2ccccc2)N1/N=C/c1ccccc1O
inactive: [1] 21.1 µM | [3] 15.1 µM | [4] 23.4 µM | [5] 28.1 µM | [6] 10.9 µM | [7] 10.3 µM | [8] 9.12 µM | [9] 1.87 µM | [10] 36.4 µM | [11] 2.44 µM | [12] 18.2 µM | [13] 14.8 µM | [16] 16.4 µM | [15] 26.7 µM

Nc1ccc(OCC(O)N2C(=O)c3ccccc3C2=O)cc1 (stereo not drawn)
inactive: [1] > 100 µM | [2] > 100 µM | [3] > 100 µM | [5] > 100 µM | [7] > 100 µM | [8] > 100 µM | [9] > 100 µM | [11] > 100 µM | [12] > 100 µM | [13] > 100 µM | [15] > 100 µM

COc1ccc(C(=O)Oc2c(C#N)sc3c2c(=O)n(-c2ccccc2)c(=S)n3-c2ccccc2)cc1
inactive: [1] 22.2 µM | [2] 27.9 µM | [3] 31.3 µM | [4] 23.5 µM | [5] 22.2 µM | [6] 21.6 µM | [7] 26.5 µM | [8] 30.3 µM | [9] 24.7 µM | [10] 25.9 µM | [11] 18.1 µM | [12] 20.6 µM | [13] 34.2 µM | [14] 16.4 µM | [15] 22.7 µM

O=C(/C=C/c1cccs1)c1ccc(C(=O)/C=C/c2cccs2)cc1
inactive: [1] > 100 µM | [2] > 100 µM | [3] > 100 µM | [4] > 100 µM | [6] > 100 µM | [7] > 100 µM | [9] > 100 µM | [10] > 100 µM | [12] > 100 µM | [13] > 100 µM | [16] > 100 µM | [14] > 100 µM | [15] > 100 µM

Cc1ccc(SCC(CF)OC(C)n2cnc3c(O)nc(N)nc32)cc1 (stereo not drawn)
inactive: [1] > 100 µM | [2] > 100 µM | [3] > 100 µM | [4] > 100 µM | [5] 41.1 µM | [6] > 100 µM | [7] > 100 µM | [9] > 100 µM | [10] > 100 µM | [11] > 100 µM | [12] > 100 µM | [13] > 100 µM | [16] 19.8 µM | [15] 63.8 µM

CN(NC(=O)c1ccc(Cl)cc1)C1=NCCCCN1
inactive: [1] > 100 µM | [2] > 100 µM | [3] > 100 µM | [5] > 100 µM | [6] > 100 µM | [7] > 100 µM | [8] > 100 µM | [9] > 100 µM | [10] > 100 µM | [11] > 100 µM | [12] > 100 µM | [13] > 100 µM | [16] > 100 µM | [14] > 100 µM | [15] > 100 µM

CCN1CCCCCCCCCC(=N/O)/C(=N\O)C1
inactive: [1] > 100 µM | [3] > 100 µM | [4] > 100 µM | [5] > 100 µM | [6] > 100 µM | [7] > 100 µM | [8] > 100 µM | [9] > 100 µM | [11] > 100 µM | [12] > 100 µM | [13] > 100 µM | [16] > 100 µM | [14] > 100 µM | [15] > 100 µM

CCN(CC)Cc1sc2nc3ccccc3n2c1-c1ccc(OC)cc1
inactive: [1] 18.5 µM | [2] 45.6 µM | [3] 60.4 µM | [5] 20.9 µM | [7] 17.4 µM | [8] 3.22 µM | [9] 65.5 µM | [10] 34.9 µM | [11] 26.6 µM | [12] 15 µM | [13] 24.3 µM | [16] 32.7 µM | [14] 22.9 µM | [15] 3.05 µM

CC1(C)CCCOc2cccc(c2)OCCCC(C)(C)C1=O
inactive: [1] 19.8 µM | [3] 44.1 µM | [4] 45.3 µM | [5] 18.1 µM | [6] 86.5 µM | [7] 14.8 µM | [8] 14.8 µM | [9] 30.6 µM | [10] 39.7 µM | [11] 26.6 µM | [12] 38.3 µM | [13] 54.8 µM | [16] 29.8 µM | [14] 66.2 µM | [15] 34 µM

C1=CN2C[n+]3ccc4ccccc4c3N=C2c2ccccc21
inactive: [1] 2.45 µM | [3] 6.08 µM | [4] 2.47 µM | [5] 2.52 µM | [6] 3.25 µM | [7] 8.2 µM | [8] 1.24 µM | [9] 7.57 µM | [10] 3.92 µM | [11] 2.82 µM | [12] 48.6 µM | [13] 2.54 µM | [16] 7.98 µM | [15] 2.19 µM

CC[C@@]1(N(C)C)C(=O)OCc2c1cc1n(c2=O)Cc2cc3ccccc3nc2-1
inactive: [2] 97.7 µM | [3] 96.6 µM | [7] 58.3 µM | [8] > 100 µM | [9] 16.9 µM | [11] 33.1 µM | [12] 21.3 µM | [13] 17.3 µM | [16] 20.3 µM | [14] 42.7 µM | [15] > 100 µM

CC1(C)OCC(C2OC3OC(C)(C)OC3C2c2ccccc2)O1 (stereo not drawn)
inactive: [1] 39.6 µM | [2] > 100 µM | [3] 55 µM | [4] 26.7 µM | [5] 18.3 µM | [6] 37.5 µM | [7] 24.3 µM | [8] 30.2 µM | [9] 49 µM | [10] 20.7 µM | [11] 36.4 µM | [12] 31.1 µM | [13] 38.4 µM | [15] 37.8 µM

CO[C@@]12C[C@@H](C)C3=CCC(C)=C3CC1=C(C)C(=O)O2
inactive: [1] > 100 µM | [2] > 100 µM | [3] > 100 µM | [5] 50.8 µM | [7] 85.7 µM | [8] 53.3 µM | [10] > 100 µM | [11] > 100 µM | [12] > 100 µM | [13] > 100 µM | [16] > 100 µM | [14] > 100 µM | [15] > 100 µM

CC(=O)On1c(-c2ccccc2-c2nc3ccccc3n2OC(C)=O)nc2ccccc21
inactive: [2] 33.4 µM | [3] 42.8 µM | [4] 39.6 µM | [5] 14.7 µM | [6] 42.7 µM | [7] 4.43 µM | [8] 13.9 µM | [9] 97.9 µM | [10] 37.8 µM | [11] 25 µM | [12] 79.3 µM | [13] 23 µM | [16] 30.3 µM | [15] 16.2 µM

CC(C)C1=CC23CCC4C(C)(C(=O)O)CCCC4(C)C2CC1C1C(=O)N(CCCCCCN2C(=O)C4C5CC6C7(C)CCCC(C)(C(=O)O)C7CCC6(C=C5C(C)C)C4C2=O)C(=O)C13 (stereo not drawn)
inactive: [1] 3.84 µM | [2] 12.7 µM | [3] 15.3 µM | [4] 14 µM | [5] 13.5 µM | [6] > 10 µM | [7] 5.9 µM | [8] 16.6 µM | [9] > 10 µM | [10] 12.3 µM | [11] 8.51 µM | [13] 13.4 µM | [14] 11.6 µM | [15] 4.54 µM

C[Si](C)(OCCS(=O)(=O)O)C1S(=O)(=O)OCCOS1(=O)=O
inactive: [1] > 100 µM | [2] 35.5 µM | [3] > 100 µM | [4] > 100 µM | [5] 27.5 µM | [6] 23.9 µM | [7] 93.5 µM | [8] 70 µM | [9] 56.4 µM | [11] 67.1 µM | [12] 45.4 µM | [13] 24 µM | [16] 27.4 µM | [14] > 100 µM | [15] 43.5 µM

CC(=O)C1C(=O)C(=O)N(c2ccc(Cl)c(Cl)c2)C1=O (stereo not drawn)
inactive: [1] > 100 µM | [2] > 100 µM | [3] > 100 µM | [4] > 100 µM | [5] > 100 µM | [6] > 100 µM | [7] > 100 µM | [9] > 100 µM | [11] > 100 µM | [12] > 100 µM | [16] > 100 µM | [15] > 100 µM

CN(Cc1cnc2nc(N)nc(N)c2n1)c1ccc(C(=O)NC(CCC(=O)O)C(=O)O)cc1 (stereo not drawn)
inactive: [2] 41.5 µM | [3] > 100 µM | [7] 3.81 µM | [16] 4.07 µM | [14] > 100 µM
active: [1] < 0.01 µM | [4] < 0.011 µM | [5] < 0.01 µM | [6] < 0.014 µM | [8] < 0.01 µM | [11] < 0.01 µM | [12] 0.0249 µM | [13] < 0.0298 µM | [15] < 0.01 µM
